Measurements reported in article PMC8213057, “Targeting ALK2: An Open Science Approach to Developing Therapeutics for the Treatment of Diffuse Intrinsic Pontine Glioma” (Journal of Medicinal Chemistry, 2020).

Tests used:
FGFR4 = FGFR4 (Homo sapiens, UniProt P22455); assay: biochemical; conditions: read-out: % enzyme activity, 1 μM; Run 1, Run 2
CDK8/cyclin C = CDK8/cyclin C (Homo sapiens, UniProt P49336); assay: biochemical; conditions: read-out: % enzyme activity, 1 μM; Run 1, Run 2
GRK6 = GRK6 (Homo sapiens, UniProt P43250); conditions: 1 μM; Run 1, Run 2
GRK6, sequence (P43250 whole entry): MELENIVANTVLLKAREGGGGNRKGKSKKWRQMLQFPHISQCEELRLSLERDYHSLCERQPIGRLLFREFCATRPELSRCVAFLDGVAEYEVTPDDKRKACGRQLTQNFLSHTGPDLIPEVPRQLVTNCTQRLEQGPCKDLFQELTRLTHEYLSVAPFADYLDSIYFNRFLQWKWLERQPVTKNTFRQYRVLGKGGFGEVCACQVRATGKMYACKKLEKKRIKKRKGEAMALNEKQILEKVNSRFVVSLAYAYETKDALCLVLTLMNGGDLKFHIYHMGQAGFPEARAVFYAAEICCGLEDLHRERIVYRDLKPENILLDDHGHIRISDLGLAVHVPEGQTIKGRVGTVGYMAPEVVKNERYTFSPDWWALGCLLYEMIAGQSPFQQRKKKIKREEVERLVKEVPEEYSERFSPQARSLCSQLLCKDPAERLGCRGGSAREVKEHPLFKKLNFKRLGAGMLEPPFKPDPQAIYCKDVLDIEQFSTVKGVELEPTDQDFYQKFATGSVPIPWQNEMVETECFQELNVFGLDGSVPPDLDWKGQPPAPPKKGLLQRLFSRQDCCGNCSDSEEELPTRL

TSSK2 = molecular target: T1, TSSK2 (Homo sapiens, UniProt Q96PF2); conditions: 1 μM; Run 1, Run 2
T1 sequence (Q96PF2 1-358): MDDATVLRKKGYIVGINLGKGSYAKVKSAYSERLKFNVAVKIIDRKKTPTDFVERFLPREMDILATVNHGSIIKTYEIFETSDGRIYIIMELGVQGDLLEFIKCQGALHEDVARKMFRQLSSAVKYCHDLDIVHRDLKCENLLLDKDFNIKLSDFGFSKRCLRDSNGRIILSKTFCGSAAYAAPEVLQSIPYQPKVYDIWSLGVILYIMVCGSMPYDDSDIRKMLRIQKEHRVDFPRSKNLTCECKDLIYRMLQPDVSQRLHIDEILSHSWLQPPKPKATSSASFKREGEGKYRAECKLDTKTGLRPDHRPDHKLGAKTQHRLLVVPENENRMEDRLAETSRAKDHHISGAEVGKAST

CAMKK1 = CAMKK1 (Homo sapiens, UniProt Q8N5S9); conditions: 1 μM; Run 1, Run 2
CAMKK1, sequence (Q8N5S9 whole entry): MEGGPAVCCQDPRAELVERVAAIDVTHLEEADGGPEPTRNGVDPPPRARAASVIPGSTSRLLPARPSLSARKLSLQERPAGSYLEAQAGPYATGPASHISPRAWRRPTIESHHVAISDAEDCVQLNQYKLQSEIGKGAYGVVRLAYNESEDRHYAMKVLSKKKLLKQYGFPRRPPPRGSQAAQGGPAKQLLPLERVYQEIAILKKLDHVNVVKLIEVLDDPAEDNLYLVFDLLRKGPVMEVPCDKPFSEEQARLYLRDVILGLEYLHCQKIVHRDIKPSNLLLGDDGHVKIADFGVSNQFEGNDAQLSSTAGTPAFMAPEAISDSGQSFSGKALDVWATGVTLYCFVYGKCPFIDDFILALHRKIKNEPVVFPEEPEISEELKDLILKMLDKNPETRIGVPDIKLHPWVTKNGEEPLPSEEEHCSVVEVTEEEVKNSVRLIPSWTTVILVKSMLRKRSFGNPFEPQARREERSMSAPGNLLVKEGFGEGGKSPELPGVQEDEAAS

EPHB4 = molecular target: T2, EPHB4 (Homo sapiens, UniProt P54760); assay: biochemical; conditions: read-out: % enzyme activity, 1 μM; Run 1, Run 2
T2 sequence (P54760 16-987): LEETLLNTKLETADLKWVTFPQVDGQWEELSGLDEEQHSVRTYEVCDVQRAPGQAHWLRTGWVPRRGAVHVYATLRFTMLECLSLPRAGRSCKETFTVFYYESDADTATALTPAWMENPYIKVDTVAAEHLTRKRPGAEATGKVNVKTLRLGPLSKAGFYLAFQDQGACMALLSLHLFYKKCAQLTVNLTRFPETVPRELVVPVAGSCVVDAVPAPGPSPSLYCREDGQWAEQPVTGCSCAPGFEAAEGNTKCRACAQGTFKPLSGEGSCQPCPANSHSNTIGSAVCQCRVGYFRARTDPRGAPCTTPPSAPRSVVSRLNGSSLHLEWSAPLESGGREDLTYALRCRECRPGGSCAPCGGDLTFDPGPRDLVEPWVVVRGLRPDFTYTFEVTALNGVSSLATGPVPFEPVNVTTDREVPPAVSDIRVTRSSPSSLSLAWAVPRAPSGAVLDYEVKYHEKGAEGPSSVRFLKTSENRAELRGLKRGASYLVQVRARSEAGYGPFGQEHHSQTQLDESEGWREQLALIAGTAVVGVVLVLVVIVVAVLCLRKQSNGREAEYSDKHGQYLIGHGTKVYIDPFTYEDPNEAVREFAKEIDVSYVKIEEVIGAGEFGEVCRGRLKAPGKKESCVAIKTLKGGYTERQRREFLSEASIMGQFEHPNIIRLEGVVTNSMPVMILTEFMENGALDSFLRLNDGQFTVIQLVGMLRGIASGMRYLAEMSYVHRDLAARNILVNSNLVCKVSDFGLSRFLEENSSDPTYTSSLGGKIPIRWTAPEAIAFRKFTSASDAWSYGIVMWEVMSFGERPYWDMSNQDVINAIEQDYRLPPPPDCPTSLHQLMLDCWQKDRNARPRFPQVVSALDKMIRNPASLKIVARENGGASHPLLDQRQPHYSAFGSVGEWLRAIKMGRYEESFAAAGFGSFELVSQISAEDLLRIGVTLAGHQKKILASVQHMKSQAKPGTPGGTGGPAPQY

P38b/MAPK11 = P38b/MAPK11 (Homo sapiens, UniProt Q15759); conditions: 1 μM; Run 1, Run 2
P38b/MAPK11, sequence (Q15759 whole entry): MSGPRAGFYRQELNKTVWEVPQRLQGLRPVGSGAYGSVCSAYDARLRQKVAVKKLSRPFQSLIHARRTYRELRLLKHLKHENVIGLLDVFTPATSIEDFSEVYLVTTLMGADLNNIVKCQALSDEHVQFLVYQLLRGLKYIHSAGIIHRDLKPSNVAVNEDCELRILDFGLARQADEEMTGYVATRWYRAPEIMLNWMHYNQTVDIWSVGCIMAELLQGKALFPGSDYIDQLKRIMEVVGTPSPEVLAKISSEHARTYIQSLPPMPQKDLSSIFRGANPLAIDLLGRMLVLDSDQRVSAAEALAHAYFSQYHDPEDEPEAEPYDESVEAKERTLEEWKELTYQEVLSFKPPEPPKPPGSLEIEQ

CDK1/cyclin E = CDK1/cyclin E (Homo sapiens, UniProt P06493); conditions: 1 μM; Run 1, Run 2
CDK1/cyclin E, sequence (P24864 whole entry): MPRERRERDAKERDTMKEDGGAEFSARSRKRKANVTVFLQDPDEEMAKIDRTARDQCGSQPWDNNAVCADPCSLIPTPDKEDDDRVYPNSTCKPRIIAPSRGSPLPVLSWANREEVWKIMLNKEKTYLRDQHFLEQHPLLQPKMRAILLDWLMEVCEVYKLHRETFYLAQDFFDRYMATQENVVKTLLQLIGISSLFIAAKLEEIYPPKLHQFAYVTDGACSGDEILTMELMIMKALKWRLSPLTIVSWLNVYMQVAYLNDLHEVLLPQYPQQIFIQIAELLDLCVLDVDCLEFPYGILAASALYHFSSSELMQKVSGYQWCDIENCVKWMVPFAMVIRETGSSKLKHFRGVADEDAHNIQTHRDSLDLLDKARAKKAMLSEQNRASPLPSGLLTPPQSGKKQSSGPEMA
CDK1/cyclin E, sequence (P06493 whole entry): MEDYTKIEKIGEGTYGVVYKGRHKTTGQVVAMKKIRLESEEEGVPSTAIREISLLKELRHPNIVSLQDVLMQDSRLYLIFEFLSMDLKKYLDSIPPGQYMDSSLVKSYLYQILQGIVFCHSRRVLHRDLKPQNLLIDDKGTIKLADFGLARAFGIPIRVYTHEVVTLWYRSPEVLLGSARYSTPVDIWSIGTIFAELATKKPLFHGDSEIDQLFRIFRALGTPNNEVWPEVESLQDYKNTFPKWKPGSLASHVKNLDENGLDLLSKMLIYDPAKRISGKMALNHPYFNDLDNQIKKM

TSSK3/STK22C = molecular target: T3, TSSK3/STK22C (Homo sapiens, UniProt Q96PN8); assay: biochemical; conditions: read-out: % enzyme activity, 1 μM; Run 1, Run 2
T3 sequence (Q96PN8 1-268): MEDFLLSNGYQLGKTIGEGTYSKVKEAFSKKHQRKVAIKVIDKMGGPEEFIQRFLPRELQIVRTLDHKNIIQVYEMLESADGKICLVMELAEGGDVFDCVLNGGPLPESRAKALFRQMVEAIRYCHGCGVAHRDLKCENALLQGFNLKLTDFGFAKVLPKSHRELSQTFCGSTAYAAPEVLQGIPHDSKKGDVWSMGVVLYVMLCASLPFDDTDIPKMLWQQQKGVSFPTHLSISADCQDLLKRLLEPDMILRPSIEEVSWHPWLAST

FGFR4, sequence (P22455 22-802): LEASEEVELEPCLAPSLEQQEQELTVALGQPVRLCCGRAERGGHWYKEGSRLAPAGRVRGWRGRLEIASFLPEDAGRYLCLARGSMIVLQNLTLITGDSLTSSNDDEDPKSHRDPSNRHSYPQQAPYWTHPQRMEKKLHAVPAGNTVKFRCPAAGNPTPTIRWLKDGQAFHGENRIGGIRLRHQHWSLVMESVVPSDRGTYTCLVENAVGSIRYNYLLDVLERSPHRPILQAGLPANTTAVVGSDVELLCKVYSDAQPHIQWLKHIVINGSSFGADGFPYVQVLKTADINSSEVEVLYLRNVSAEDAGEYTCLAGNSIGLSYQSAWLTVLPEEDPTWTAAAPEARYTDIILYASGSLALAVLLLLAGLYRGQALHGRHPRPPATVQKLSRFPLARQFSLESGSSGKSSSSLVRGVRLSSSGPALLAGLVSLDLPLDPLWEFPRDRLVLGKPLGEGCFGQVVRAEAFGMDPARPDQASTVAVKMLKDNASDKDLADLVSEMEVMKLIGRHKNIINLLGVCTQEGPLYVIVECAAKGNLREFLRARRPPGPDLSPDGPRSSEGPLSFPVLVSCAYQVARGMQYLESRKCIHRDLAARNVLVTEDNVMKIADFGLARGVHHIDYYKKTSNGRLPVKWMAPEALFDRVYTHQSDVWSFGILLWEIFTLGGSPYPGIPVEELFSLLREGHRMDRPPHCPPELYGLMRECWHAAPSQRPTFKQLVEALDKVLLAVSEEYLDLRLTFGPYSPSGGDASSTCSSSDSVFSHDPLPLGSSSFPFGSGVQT
CDK8/cyclin C, sequence (P49336 whole entry): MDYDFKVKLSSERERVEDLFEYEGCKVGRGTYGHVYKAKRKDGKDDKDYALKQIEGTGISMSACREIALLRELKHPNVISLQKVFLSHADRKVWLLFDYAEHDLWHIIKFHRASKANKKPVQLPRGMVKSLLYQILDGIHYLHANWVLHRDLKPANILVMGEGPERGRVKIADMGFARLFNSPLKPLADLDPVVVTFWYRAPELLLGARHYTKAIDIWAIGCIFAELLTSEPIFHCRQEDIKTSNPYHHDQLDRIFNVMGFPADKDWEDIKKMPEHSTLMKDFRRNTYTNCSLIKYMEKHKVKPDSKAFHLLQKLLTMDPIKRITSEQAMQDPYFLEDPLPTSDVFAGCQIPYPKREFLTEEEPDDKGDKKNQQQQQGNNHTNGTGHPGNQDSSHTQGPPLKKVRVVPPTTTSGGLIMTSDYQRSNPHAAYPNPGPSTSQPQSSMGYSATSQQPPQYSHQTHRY
CDK8/cyclin C, sequence (P24863 whole entry partner): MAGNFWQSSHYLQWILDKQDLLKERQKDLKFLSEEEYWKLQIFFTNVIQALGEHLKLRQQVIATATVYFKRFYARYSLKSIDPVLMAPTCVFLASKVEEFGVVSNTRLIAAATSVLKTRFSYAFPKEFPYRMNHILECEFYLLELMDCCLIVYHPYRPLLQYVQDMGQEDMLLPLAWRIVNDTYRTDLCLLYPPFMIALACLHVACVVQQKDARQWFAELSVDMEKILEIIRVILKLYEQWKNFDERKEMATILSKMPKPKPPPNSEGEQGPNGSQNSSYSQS

SMILES | remaining activity at 1 µM (FGFR4) | remaining activity at 1 µM (CDK8/cyclin C) | % enzyme activity (GRK6) | % enzyme activity (TSSK2) | % enzyme activity (CAMKK1) | remaining activity at 1 µM (EPHB4) | % enzyme activity (P38b/MAPK11) | % enzyme activity (CDK1/cyclin E) | remaining activity at 1 µM (TSSK3/STK22C)
COc1cc(-c2cncc(-c3ccc(N4C[C@@H](C)N(C)[C@@H](C)C4)cc3)c2C)cc(F)c1C(N)=O [Compound 26c, 2-Fluoro-6-methoxy-4-(4-methyl-5-(4-((3R,5S)-3,4,5-trimethylpiperazin-1-yl)phenyl)pyridin-3-yl)benzamide] | 99.6% | 93.1% | 94.12% | 99.71% | 93.52% | 91.5% | 95.51% | 91.92% | 96.6%
COc1cc(-c2cncc(-c3ccc(N4CCN(C)CC4)cc3)c2C)cc(F)c1C(N)=O [Compound 26a, 2-Fluoro-6-methoxy-4-(4-methyl-5-(4-(4-methylpiperazin-1-yl)phenyl)pyridin-3-yl)benzamide] | 98.2% | 84.6% | 107.43% | 98.77% | 92.05% | 94.7% | 92.20% | 97.19% | 96.6%
